Paper PMC3684613 (PLoS ONE, 2013)
pEC50: −log10 of the molar value. Read-outs that look alike come from different tables or passages of the source.

How the values were obtained:
[1] = test system: P. falciparum 3D7; assay: DAPI stain fluorescent high content imaging assay, P. falciparum 3D7 (confirmatory screen, Avery); conditions: Plasmodium falciparum; for pEC50: 3D7, read-out: EC50_nM; for inhibition of growth at 5 µM: 3D7, read-out: percent_inh @ 5 uM; for inhibition of growth at 2 µM: 3D7, read-out: percent_inh @ 2 uM
[2] = test system: P. falciparum 3D7; set-up: method as in ChEMBL-NTD; conditions: ref ChEMBL-NTD, cited from earlier work
[3] = original screening data, source (GSK, GNF, StJude), several values separated by ';' in order of sources
[4] = values follow the order of the source (GNF; GSK; StJude)

Compound	pEC50 [1]	inhibition of growth at 5 µM [1] [%]	also measured
COc1ccc(C=C2SC(=N)N(c3ccccc3OC)C2=O)cc1 [MMV666691]	6.77	97	pEC50 ([2]; source GSK (TCMDC id)): 6.52
O=C(Nc1ccccc1O)c1ccc(Oc2cccc(C(=O)Nc3ccccc3O)c2)cc1 [MMV665888]	–	91	pEC50 ([2]; source GSK): 6.10
CC(C)(C)c1ccc2c(c1)CN(Cc1ccc(Cl)cc1)CO2 [MMV000442]	6.44	98	pEC50 ([2]; source StJude (SJ ids)): 6.59
CCOC(=O)c1cn(CC)c2cc(N3CCCCC3)c(F)cc2c1=O [MMV665827]	6.92	100	pEC50 ([2]; source GNF (GNF-Pf id)): 6.78; pEC50 ([2]; source GSK (TCMDC id)): 6.90
COc1ccc(-c2nonc2NC(=O)c2cccc(C)c2)cc1OC [MMV665890]	–	95	pEC50 [2, 3]: 6.09
FC(F)(F)c1cccc(Nc2nc(-c3ccccc3)nc3ncccc23)c1 [MMV665798]	–	74	pEC50 ([2]; source GSK): 6.10
Cc1ccc(-c2cc(C(=O)Nc3ccc(S(=O)(=O)N4CCCCC4)cc3)[nH]n2)c(O)c1 [MMV665906]	6.27	94	pEC50 ([2]; source GSK): 5.75
CC1CC(C)CN(C(=O)c2ccc(Cl)cc2Cl)C1 (stereo not drawn) [MMV001344]	6.12	95	pEC50 [2, 3]: 5.88
COc1cccc(C(=O)Nc2ccc(-c3nc4ccccc4[nH]3)cc2)c1 [MMV019762]	–	83	pEC50 [2, 3]: 6.10
CC(Oc1ccc(NC(=O)c2cccs2)cc1)C(=O)c1ccc(Cl)cc1 (stereo not drawn) [MMV665886]	5.99	87	pEC50 [2, 4]: 6.11
COc1cc(OC)cc(N2C(=O)N(Cc3ccc(C(C)(C)C)cc3)c3ccccc3S2(=O)=O)c1 [MMV008173]	5.84	97	pEC50 ([2]; source GNF (GNF-Pf ids)): 5.43
OC(CNC1CCCCC1)Cn1c2ccc(I)cc2c2cc(I)ccc21 (stereo not drawn) [MMV665882]	6.33	97	pEC50 [2, 4]: 6.47
CCOc1ccc(CCNC(=O)c2cccs2)cc1OCC [MMV007978]	–	95	pEC50 [2, 3]: 6.05
Cc1ccc(Cl)cc1N1CCN(CCCNC(=O)C2CCN(c3nc4ccccc4[nH]3)CC2)CC1 [MMV019746]	5.88	97	pEC50 ([2]; source GSK): 6.05
CCOC(=O)c1cnc2c(C)cccc2c1Nc1ccc(C(C)=O)cc1 [MMV006250]	6.50	94	pEC50 ([2]; source GNF (GNF-Pf ids)): 6.93
COc1ccccc1CNC(=O)C1c2ccccc2C(=O)N(CC(C)C)C1c1cccs1 (stereo not drawn) [MMV000648]	–	97	pEC50 ([2]; source StJude): 5.50
O=C(Nc1ccccc1O)c1ccc(-c2ccc(Cl)cc2Cl)o1 [MMV665948]	–	97	pEC50 ([2]; source StJude): 5.61
CCOc1ccc(-c2nonc2NC(=O)c2cccc(C)c2)cc1OCC [MMV665805]	6.93	86	pEC50 ([2]; source StJude): 7.21
c1ccc2c(NCCCCCCNc3c4c(nc5ccccc35)CCCC4)c3c(nc2c1)CCCC3 [MMV019555]	6.42	100	pEC50 ([2]; source GSK (TCMDC ids)): 6.71

Compound	pEC50 [1]	inhibition of growth at 5 µM [1] [%]	also measured
CCOC(=O)C1=C(C)N=c2sc(=Cc3ccccc3O)c(=O)n2C1c1ccc(OC)c2ccccc12 (stereo not drawn) [MMV666604]	5.82	97	pEC50 ([2]; source GSK (TCMDC ids)): 5.90
COc1ccc(CCN2CCC(CN(C)Cc3cnn(-c4ccccc4)c3)CC2)cc1 [MMV666069]	5.84	96	pEC50 ([2]; source GSK): 5.94
Oc1ccc(C(=C(Cl)Cl)c2ccc(O)cc2)cc1 [MMV665949]	–	95	pEC50 ([2]; source StJude (SJ ids)): 5.61
O=C(NCC1Cc2cccc(-c3ccncc3)c2O1)c1csc2c1CCCC2 (stereo not drawn) [MMV665954]	5.76	87	pEC50 ([2]; source StJude): 5.06
COc1cc(SC)ccc1C(=O)N1CCCC(C)C1 (stereo not drawn) [MMV056726]	5.40	–	inhibition of growth at 2 µM [1]: 45%; pEC50 [2, 3]: 5.01
O=C1c2ccccc2C2=Nc3ccccc3SC(c3cccc(F)c3)C12 (stereo not drawn) [MMV006389]	6.38	94	pEC50 ([2]; source GNF (GNF-Pf ids)): 7.06
Cc1ccc(N2C3c4ccccc4N(S(=O)(=O)c4ccc(C)cc4)C2c2ccccc2N3S(=O)(=O)c2ccc(C)cc2)cc1 [MMV007160]	7.61	97	pEC50 ([2]; source GNF (GNF-Pf id)): 6.14
Cc1ccc2c(C)nc(Nc3nc(C)cc(-c4ccccc4)n3)nc2c1 [MMV007041]	5.40	–	inhibition of growth at 2 µM [1]: 73%; pEC50 [2, 4]: 6.01
Nc1ccc(-c2nc3cc(Oc4ccc(Oc5ccc6[nH]c(-c7ccc(N)cc7)nc6c5)cc4)ccc3[nH]2)cc1 [MMV011895]	6.07	97	pEC50 ([2]; source GNF): 6.54
O=C(Nc1ccc(CN2CCOCC2)cc1)c1ccc(-c2cc(Cl)ccc2Cl)o1 [MMV020651]	5.71	97	pEC50 [2, 3]: 6.21
COc1ccc(-c2cc3c(nn2)-c2ccccc2C3=O)cc1 [MMV666026]	–	97	pEC50 ([2]; source GNF (GNF-Pf ids)): 5.42
CCCCNc1nc(NC(C)(C)C)nc(NC(C)(C)C)n1 [MMV665864]	6.15	98	pEC50 [2, 4]: 5.67
COc1ccc(CN2CCN(Cc3ccccc3)CC2)c(O)c1 [MMV665944]	5.97	96	pEC50 ([2]; source StJude (SJ ids)): 5.96
CNCCCNc1ccnc2cc(Cl)ccc12 [MMV020500]	7.09	98	pEC50 ([2]; source GSK (TCMDC id)): 7.20
CCc1ccc(CNCC(O)c2ccccc2)cc1 (stereo not drawn) [MMV665812]	–	97	pEC50 ([2]; source StJude): 5.66
CCOc1ccccc1CNC(=O)C1c2ccccc2C(=O)N(CC(C)C)C1c1cccs1 (stereo not drawn) [MMV000653]	5.88	97	pEC50 ([2]; source StJude): 5.84
Cc1ccc(CN2CCC(C(=O)Nc3ccc(-c4cc5ccccc5[nH]4)cc3)CC2)o1 [MMV666071]	–	77	pEC50 ([2]; source GSK): 5.85
CC(C)(C)c1ccc(O)c(CNC2CCCCC2)c1 [MMV665785]	6.79	96	pEC50 ([2]; source GNF (GNF-Pf id)): 6.60; pEC50 ([2]; source GSK (TCMDC id)): 6.58
CC1CN(C(=O)c2sc3ccccc3c2Cl)CC(C)O1 (stereo not drawn) [MMV020492]	7.59	95	pEC50 ([2]; source GSK (TCMDC id)): 7.06

Compound	pEC50 [1]	inhibition of growth at 5 µM [1] [%]	also measured
Cc1c(C)n(Cc2ccc(F)cc2)c2ccc(C(=O)NCc3ccco3)cc12 [MMV008149]	–	52	pEC50 ([2]; source GNF): 7.11
CCOC(=O)C1=C(C)N=c2sc(=Cc3cc(Cl)ccc3O)c(=O)n2C1c1ccc(OC)cc1 (stereo not drawn) [MMV665971]	6.31	97	pEC50 ([2]; source GSK (TCMDC ids)): 6.13; pEC50 ([2]; source StJude (SJ ids)): 4.82
CCOc1ccc(-c2nc(NC(=O)c3cccc(S(C)(=O)=O)c3)sc2C)cc1 [MMV665913]	–	95	pEC50 ([2]; source StJude): 4.82
CC(O)(c1ccc(Cl)cc1)C(CN1CCCCC1)c1ccccc1 (stereo not drawn) [MMV000620]	–	94	pEC50 ([2]; source StJude): 6.04
O=C(CCc1ccco1)NC1CCN(CC2(c3ccc(Cl)cc3)CCC2)CC1 [MMV666108]	5.94	96	pEC50 ([2]; source GSK): 5.84
c1ccc2cc3c(Nc4ccc(N5CCOCC5)cc4)ccnc3cc2c1 [MMV006861]	6.60	97	pEC50 ([2]; source GNF (GNF-Pf id)): 6.17
COc1ccc(NC(=O)C2c3ccccc3C(=O)N(CC(C)C)C2c2cccs2)cc1Cl (stereo not drawn) [MMV000642]	7.69	100	pEC50 ([2]; source GNF (GNF-Pf id)): 7.04; pEC50 ([2]; source StJude (SJ id)): 6.93
COc1cccc(C(=O)NC(c2ccc(C)cc2)c2cc(Cl)c3cccnc3c2O)c1 (stereo not drawn) [MMV665969]	6.41	97	pEC50 ([2]; source StJude (SJ ids)): 4.82
CCCc1c(C)nc2ccccc2c1O [MMV666081]	–	88	pEC50 ([2]; source GNF): 6.20
Cc1c(C)n(CC(O)CNC2CCCCC2C)c2ccccc12 (stereo not drawn) [MMV665806]	6.11	96	pEC50 [2, 3]: 6.28
Oc1ccc(Cl)cc1CNc1nc2ccccc2[nH]1 [MMV665850]	–	95	pEC50 ([2]; source GNF): 6.04
COc1cc2c3cc1Oc1c(OC)c(OC)cc4c1C(Cc1ccc(O)c(c1)Oc1ccc(cc1)CC3N(C)CC2)N(C)CC4 (stereo not drawn) [MMV007474]	5.90	96	pEC50 [2, 4]: 6.00
COc1ccc(C2=C(c3ccc(OC)cc3)C3(c4ccccc4)C(=O)C2(c2ccccc2)C2C(=O)N(c4ccc(C)cc4)C(=O)C23)cc1 (stereo not drawn) [MMV666101]	6.83	98	pEC50 ([2]; source GNF (GNF-Pf id)): 4.90
COc1cccc(C=Cc2nc(=O)c3ccccc3o2)c1OC [MMV666693]	7.62	96	pEC50 ([2]; source GSK (TCMDC id)): 7.19
c1ccc2c(NCCc3c[nH]c4ccccc34)c3ccccc3nc2c1 [MMV006513]	6.52	97	pEC50 ([2]; source GNF (GNF-Pf ids)): 7.07
COc1ccc2c(=O)cc(C(Cl)(Cl)Cl)oc2c1 [MMV665820]	6.28	94	pEC50 ([2]; source StJude (SJ id)): 4.82
CCOc1ccc(-n2cc(-c3ccccc3)c3c(SCc4cc(C)ccc4C)ncnc32)cc1 [MMV085471]	5.77	97	pEC50 ([2]; source GNF (GNF-Pf ids)): 5.70
CCOC(=O)C1CCN(C(=O)CN2C(=O)c3ccccc3C2c2c[nH]c3ccccc23)CC1 (stereo not drawn) [MMV011576]	5.93	98	pEC50 [2, 3]: 6.28
CCCCOC(=O)c1ccc(Nc2cc(C)nc3ccc(OC)cc23)cc1 [MMV665797]	6.23	99	pEC50 ([2]; source GSK (TCMDC ids)): 6.19
